Patent US20120277265A1, “NOVEL POLYQUINOLINE DERIVATIVES AND THE THERAPEUTIC USE THEREOF” (CENTRE NATIONAL DE LA RECHERCHE SCIENTIFIQUE (C.N.R.S.), priority 2005, published 2012)

Tests used:
[1] = UV-visible spectrophotometric titration with ZnCl2 (metal/ligand stoichiometry); assay type: binding; conditions: 15 μM ligand; Tris-HCl buffer pH 7.4/organic solvent, per ligand as in Table 3 column Solvent
Experimental: (§1) An organic solvent (CH3OH, dioxane or DMSO) was added in order to achieve good solubility of the ligands and metal complexes in the concentrations used in these experiments. Exact proportions of the organic solvent/buffer mixture are specified for each UV-visible characterisation of the different ligands or metal complexes.
(§2) Aliquot portions of concentrated CuCl2 or ZnCl2 solutions (M) are added to a 15 μM ligand solution so as to induce only negligible variations in volume. After each addition, changes in absorption spectra are observed immediately and are consistent between two additions, which corresponds to a rapid complexing process. The exact absorption values relating to each ligand and the copper(II) or zinc(II) complexes thereof are detailed hereinafter in the Experimental part (in the Synthesis part for ligands and hereinafter for the metal complexes).
(§3) The stoichiometry of the different ligands (L) for Cu(II) or ZN(II) have therefore been determined spectrophotometrically by metal ion titration. In this example, for an M/L ratio increasing from 0 to 1, π→π* with transition, centred at 251 nm for the free ligand, is shifted to a lower energy with a concomitant appearance of an absorption band in the visible region of the spectrum (λmax to 383 nm), which is probably the result of an MLCT transition. For greater M/L ratios, no additional change in the UV-visible absorption spectra is observed.

[2] = target: T1, copper complexes of Aβ1-42 peptide (Homo sapiens, UniProt P05067); assay: Hydrogen peroxide produced by Aβ1-42 in the presence of CuCl2, ascorbate, air and ligand (Amplex Red H2O2/HRP); assay type: biochemical; conditions: ligand 1 eq/Cu(II) (0.4 μM); CuCl2 0.4 μM, ascorbate 10 μM, air
T1 construct: The β-amyloid peptide Aβ1-42 (Aβ1-42) was synthesised, purified (to a purity greater than 95%); made in house; host or cells: chemical peptide synthesis (no expression host)
T1 sequence (P05067 672-713 limits assumed, one chain of several): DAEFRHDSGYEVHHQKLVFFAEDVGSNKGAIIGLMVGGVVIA
Experimental: (§4) FIG. 11: Variation in H2O2 production by copper complexes of Aβ1-42 peptide as a function of the Cu(II)/Aβ stoichiometry. Experiments are carried out for 5 minutes in a sodium phosphate buffer (pH=7.4) in the presence 0.4 μM CuCl2, 10 μM ascorbate and air with or without 0.4 μM of 3 or 7. The H2O2 released is quantified by means of an Amplex-Red H2O2/HRP Assay kit.
(§5) The final concentrations are given. The reactions were carried out in the dark in mM sodium phosphate buffer (pH=7.4). Aβ1-42 (0.2 μM) and CuCl2 (0.4 μM) were pre-incubated for 1 hour at 37° C. while stirring at 1,400 rpm in 375 μl of buffer. Then 2 μl of a solution of ligand to be investigated (0.2; 0.4 or 0.8 μM) in DMSO were added. After incubation for a further hour, 2 μl of an aqueous sodium ascorbate solution (10 μM) were added and incubation was continued for 5 min while stirring. The amount of H2O2 produced is then quantified using an Amplex Red H2O2/HRP Assay Kit (Molecular Probes) while adding a volume of assay reagent to the samples, then incubating them for 1 hour at 37° C. while stirring at 500 rpm. […] Quantification is carried out on the basis of standard curves obtained with known amounts of H2O2.
(§6) The figures in the tables correspond to the amount of H2O2 (expressed in nanomoles) added using an Amplex Red H2O2/HRP Assay kit.

[3] = as above; assay type: biochemical; conditions: ligand 1 eq/Cu(II) (0.4 μM); CuCl2 0.4 μM, ascorbate 10 μM, air
Experimental: as §4, §5, §6

[4] = Competition reaction between ligand (Ls), ZnCl2 and competing chelator (Lc), UV-visible; affinity constants; assay type: binding; conditions: Ls/ZnCl2/Lc 1/1/1 at 15 μM; solvent per ligand as in Table 3
Experimental: An organic solvent (CH3OH, dioxane or DMSO) was added in order to achieve good solubility of all the ligands and metal complexes in the concentrations used in these experiments.
As the concentration [MLs]=x % of C is measured on the UV-visible spectra, the concentrations [Ls]=(1−x) % of C, [MLc]=(1−x) % of C and [Lc]=x % of C can be deduced therefrom and:
In these conditions, [MLs]=[MLc]; [MLs]+[Lc]=Y, y≧50 and:
When log Ks 6, these equations are not used since the percentages of metal ion which is free in the solution or chelated by the solvent or the buffer are not negligible.

Aβ1-42 = target: T2, Aβ1-42 (Homo sapiens, UniProt P05067); assay: Inhibition of the precipitation of Aβ1-42 by the addition of ligand (Micro BCA assay of soluble/aggregated peptide); assay type: biochemical; conditions: Aβ1-42 5 μM, pH 7.4; for CuCl2 % soluble Aβ: 20 μM CuCl2, 1 h 37° C. then 1 h with 200 μM ligand; for FeCl3 % soluble Aβ: 20 μM FeCl3, 1 h 37° C. then 1 h with 200 μM ligand; for ZnCl2 % soluble Aβ: 20 μM ZnCl2, 1 h 37° C. then 1 h with 200 μM ligand; for without metal % soluble Aβ: no metal salt, 1 h 37° C. then 1 h with 200 μM ligand
T2 construct: The β-amyloid peptide Aβ1-42 (Aβ1-42) was synthesised, purified (to a purity greater than 95%); made in house; host or cells: chemical peptide synthesis (no expression host)
T2 sequence (P05067 672-713): as the sequence (P05067 672-713 limits assumed, one chain of several) above
Experimental: After a further hour of incubation, the reaction mixture is centrifuged.
Before use, the water [of Milli-Q Millipore quality] and all buffer solutions were treated on Chelex-100 resin (Biorad) (5 mg/ml) and filtered through 0.2 μm filters (Whatman) to remove potential traces of metal ions or particles.
Working solutions of the peptide were prepared by solubilising 1 mg of lyophilised peptide in 500 μl of water and 500 μl of an aqueous NaOH solution pH=12.0, while stirring in a Thermomixer Comfort (Eppendorf). The peptide preparations are subsequently centrifuged for 10 minutes at 9,000 rpm and the supernatant is used as an “Aβ stock” solution. The concentration of peptide in the “Aβ stock” is determined immediately by colorimetric assay using a Micro BCA Protein Assays kit (Pierce) from standard ranges produced using known amounts of bovine serum albumin (BSA) then the Aβ1-42 peptide solution is aliquoted and frozen rapidly in liquid nitrogen prior to being stored at −20° C. until being used.
Salts are generated by adding one hydrochloric acid equivalent per nitrogen group equivalent of the ligand dissolved in DMSO. After evaporation of the solvent, these salts are dissolved at the desired concentration with DMSO and kept at −20° C. until they are used.
The protocol was established from works by: C. S. Atwood et al., J. Neurochem. […] The final concentrations are given. 500 μl of Aβ1-42 (5 μM is set to aggregate in 20 mM Tris-HCl buffer containing 150 mM NaCl (pH=7.4) for 1 hour at 37° C. while stirring at 1,400 rpm in the absence or presence of metal ions: CuCl2, ZnCl2 or FeCl3 (20 μM). Then 50 pi of ligand to be tested (200 μM) dissolved in DMSO are added and the samples are incubated for 1 further hour at 37° C. while stirring at 1,400 rpm. The samples without ligand also receive 50 μl of DMSO. The samples (final volume=550 μ) are subsequently centrifuged for 20 min at 9,000 rpm, and 500 μl of supernatant are removed. The tube containing the precipitation pellet then receives 450 μl of assay buffer/DMSO mixture (91/9, v/v). […] Quantification is carried out on the basis of standard BSA ranges. The amounts of Aβ1-42 actually contained in the pellet and the supernatant are obtained after a correction due to the presence of a residual portion of supernatant in the pellet-containing fraction.
For the control experiments with derivatives comprising a single quinoline residue, […] of ligand were added because complexes of type L2Cu are conventionally used in these cases.

[5] = Competition reaction between ligand (Ls), CuCl2 and competing chelator (Lc), UV-visible; affinity constants
Experimental: An organic solvent (CH3OH, dioxane or DMSO) was added in order to achieve good solubility of all the ligands and metal complexes in the concentrations used in these experiments. Monitoring has shown that all the ligands and metal complexes examined yield results corresponding to the Beer-Lambert Law in the experimental conditions used.
Lc competing chelators were selected to provide a range of stability constants for the metal ion M presenting intervals of approximately one or two log units, as well as to make it possible for each competition experiment to quantify one of the Ls, MLs, Lcc or MLc species with a UV-vis spectrum wavelength without contaminating the three other species (FIG. 7). […] As the concentration [MLs]=x % of C is measured on the UV-visible spectra, the concentrations [Ls]=(1−x) % of C, [MLc]=(1−x) % of C and [Lc]=x % of C can be deduced therefrom and:

[6] = UV-visible spectrophotometric titration with CuCl2 (metal/ligand stoichiometry); assay type: binding; conditions: 15 μM ligand; Tris-HCl buffer pH 7.4/organic solvent, per ligand as in Table 3 column Solvent
Experimental: as §1, §2, §3

[7] = Determination of log D7.4 (1-octanol / Tris-HCl buffer); assay type: physicochemical; conditions: 1-octanol / 20 mM Tris-HCl buffer containing 150 mM NaCl (pH = 7.4) (1/1, v/v)
Experimental: The ligand (2.0 mg) is dissolved in 2 ml of 1-octanol then 2 ml of 20 mM Tris-HCl buffer, pH=7.4 containing 150 mM NaCl are added. After mixing in a vortex for 3 min at ambient temperature, followed by centrifugation for 5 min at 9,000 rpm, the concentration of the ligand in each phase is determined by UV-visible spectrophotometry. The 1-octanol fractions are thus redivided until reproducible values of coefficient of division of obtained. This coefficient is expressed as the decimal logarithm of [(the concentration of ligand contained in the 1-octanol phase)/(the concentration of ligand contained in the buffered aqueous phase)]=log D7.4. Measurements were taken three times.

[8] = 25° C., ionic strength 0.1-0.2; cited from earlier work
[9] = Stability constants of competing chelators for Cu(II) (NIST / Sillen-Martell; log Kapp by Eq. 1-2); assay type: binding; conditions: at pH = 7.4, by Eq. 1 and 2
Source text: Department of Commerce) and […]

[10] = Ls/CuCl2/Lc 1/1/1 at 15 μM, solvent per ligand as in Table 3
[11] = mixture of Ls (15 μM, 1 equivalent) and CuCl2 (1/1, mol/mol)

Row | Compound | Complex observed by titration with Zn^II (observed L/Zn(II) stoichiometry) [1] | amount of H2O2, 0.2 μM Aβ1-42 Cu/Aβ = 2 [2] | amount of H2O2, 0.5 μM Aβ1-42 Cu/Aβ = 0.75 [2] | amount of H2O2, without Aβ1-42 [3] | percentage of ZnLs species at equilibrium, competing ligand EDTA [4] | CuCl2 % soluble Aβ (Aβ1-42) | FeCl3 % soluble Aβ (Aβ1-42) | ZnCl2 % soluble Aβ (Aβ1-42) | without metal % soluble Aβ (Aβ1-42) | percentage of the CuLs species at equilibrium, competing ligand EDTA [5, 10] | Complex observed by titration with Cu^II (observed L/Cu(II) stoichiometry) [6] | log K2 (stability constant for the M(Lc)2 species), Cu(II) [8] | log K1 app, Cu(II) [9] | other results
1 | Oc1c(I)cc(Cl)c2ccc(CCc3ccc4c(Cl)cc(I)c(O)c4n3)nc12 [Compound 9, 2,2′-(1,2-Ethanediyl)-bis(5-chloro-7-iodo-8-hydroxyquinoline)] | LZn^II(1/1) | 0.82 ± 0.08 nmol | 0.82 nmol | 0.66 nmol | 65% | 19% | 38% | 47% | 36% | 60% | LCu^II(1/1) |  |  | percentage of ZnLs species at equilibrium, competing ligand NTA [4]: 100%; percentage of ZnLs species at equilibrium, competing ligand Trien [4]: 100%; percentage of the CuLs species at equilibrium, competing ligand Dien [5, 10]: 100%; percentage of the CuLs species at equilibrium, competing ligand Tetren [5, 10]: 0%; percentage of the CuLs species at equilibrium, competing ligand Trien [5, 10]: 45%; number of Lc equivalents making it possible to form 50% of CuLs, Lc = Trien [5, 11]: 0.75 eq; logD at 3 min [7]: 5.6 ± 0.5
2 | NCCN [EDA, ethylenediamine] |  |  |  |  |  |  |  |  |  |  |  | 9.1 | 7.8 | 
3 | NCCNCCN [Dien, diethylenetriamine] |  |  |  |  |  |  |  |  |  |  |  | 5.0 | 11.8 | 
4 | Oc1ccc(Cl)c2ccc(CCc3ccc4c(Cl)ccc(O)c4n3)nc12 [Compound 8, 2,2′-(1.2-Ethanediyl)-bis(5-chloro-8-hydroxyquinoline 8)] | LZn^II(1/1) | 0.89 ± 0.09 nmol | 0.64 nmol | 0.66 nmol | 30% | 36% | 41% | 58% | 59% | 40% | LCu^II(1/1) |  |  | number of Lc equivalents making it possible to form 50% of CuLs, Lc = EDTA [5, 11]: 0.65 eq; log D7.4 [7]: 4.2 ± 0.1
